Test results reported in patent US20180017584A1, “ADDITIVE CHANNELS” (Emulate Inc., priority 2016, published 2018).
Positions of bridges follow the written chain, without caps; N, C: chain ends. Non-standard residues stand in square brackets, D forms with d. Residues, ends and D or L forms follow the SMILES beside them. hArg = N=C(N)NCCCC[C@H](N)C(=O)O; Mpa = O=C(O)CCS

How the values were obtained:
p-selectin on platelets = test: Quality control of platelet activation by p-selectin expression; format: cell-based, human; conditions: control blood upon activation by ADP
Method: (§1) To test for a thrombic event, blood was collected from 4 donors, the as blood alone or blood treated with hu5C8 alone (240 μg/mL), sCD40L (10 ng/ml) alone or with combined hu5C8/sCD40L was incubated for 20 minutes at room temperature. Each sample was further incubated for 5 minutes with fluorescent labels for platelets and fibrinogen. As a standard quality control, the control blood was tested for platelet activation using p-selection expression. We confirmed that platelets in control blood were not activated but upon activation by ADP, over 90% of platelet was positive for p-selectin.

[1] = test system: platelets in human whole blood perfused over HUVEC endothelium; test: Vessel-On-Chip blood perfusion, platelet coverage / aggregation by fluorescence imaging (CD41 label); format: cell-based; conditions: for platelet coverage / platelet aggregate formation on the endothelium: vs blood alone, TNF-α 50 ng/ml 6 h, sCollagen 10 μg/ml, hu5C8 240 μg/ml + sCD40L 10 ng/ml
Method: (§2) Experiments with Blood: Blood Samples And Endothelium: Citrated human blood (Research Blood Components, Cambridge, Mass.) was used within 4 hours of a blood draw in order to minimize pre-analytical effects on platelet function. Before every experiment, each one of the endothelialized channels (i.e. microchannels having an endothelial cell layer) was inspected via light microscopy, Samples showing any sign of discontinuity in the endothelium were discarded.
(§3) Blood Pre-treatment and Perfusion: Formation of IC (preformed IC): Hu5C8, IgG2σ (control) (both provided by Janssen or provided as described herein) For studies with preformed IC, Hu5C8 or IgG2σ as an isotype control were combined with sCD40L (Tonbo Biosciences, San Diego, Calif.) in PBS, in a ratio of I molecule of sCD40L to 3000 molecules of antibody. After 20 minutes incubation at room temperature, the solution was diluted in a blood sample to reach the final concentration of 240 μg/ml (Hu5C8) and 10 ng/ml (sCD40L).
Platelets: Platelets were labeled with human CD41-PE antibody (10 μL/ml. Invitrogen) directly added to the blood and incubated at room temperature for 5 minutes.
Anticoagulant Drug: As an exemplary standard antiplatelet (anticoagulant) drug, Eptifibatide was used as described herein. Eptifibatide has a well-known mechanism of action, such that a bolus of 180 mcg/Kg is frequently used to treat human patients.^54 We estimated that a concentration of 2.4 μM (about 2 μg/ml) is a clinical relevant concentration. As described herein for experiments including Eptifibatide, 2 μg/ml of Eptifibatide were incubated with blood samples for 15 minutes at room temperature before adding sCollagen or before flowing through TNF-inflamed biomimetic vessel.
(§4) Adding Blood to a Vessel-On-Chip And Flow Conditions: A medical grade plastic reservoir was mounted on the chip, then 800 μl of the blood sample was pipetted into the reservoir. The chip was perfused with the blood by withdrawing it at a rate of 60 μl/minute using a syringe pump. The citrated blood was re-calcified 2 minutes after the beginning of each experiment by adding 100 μl/ml of a solution containing 100 mM calcium chloride and 75 mM magnesium chloride to the blood to permit calcium- and magnesium-dependent platelet function and coagulation.
(§5) Staining of Endothelial Cells: Samples were washed twice in cell culture medium and then fixed in acetone/methanol 1:1 at −20° C., for 10 minutes. Each sample was then washed three times in PBS and incubated in blocking solution consisting of PBS and 10% normal donkey serum (Abcam) for one hour. After blocking, samples were washed in PBS twice and then incubated with anti VE-Cadherin monoclonal antibody (Abeam) diluted 1:100 in blocking solution at 4° C. overnight. […] Fluorescence Image analysis: Chips perfused with blood samples were immediately imaged via fluorescence microscopy (Olympus 1X83, 10× objective UPLFLN10X2, Circa-Flash4.0 CMOS Camera). […] Image processing and quantification was performed with an automatic macro compiled in […] and numerical values corresponding to platelet coverage or fibrin florescence were collected and statistically analyzed in Graphpad Prism V7.
Platelet Coverage: A percentage of signal coverage (or Platelet coverage) was computed from the binary image as the ratio of bright pixels to the total number of pixels in the image, Image processing and quantification was performed with an automatic macro compiled in ImageJ in order to ensure unbiased signal measurements. […]

[2] = test system: thrombin anti-thrombin complex (TAT); test: Thrombin-Anti Thrombin (TAT) measurement via ELISA in chip effluent; format: cell-based, human; conditions: for levels of TAT in outflow: vs blood alone, TNF-α 50 ng/ml 6 h endothelial pre-treatment, sCollagen in blood, hu5C8 240 μg/ml + sCD40L 10 ng/ml
Method: Thrombin-Anti Thrombin (TAT) measurement via ELISA: Thrombin Anti-Thrombin (TAT) levels were analyzed in plasma from blood flowing out of the chip device by removing a sample from the outflow port. Thus TAT levels were evaluated in sample effluents collected from the outflow port of the chip using the Human TAT ELISA Kit (Siemens Healthineers) according to the user manual.
Blood sampled from the Vessel-On-Chip outflow port was analyzed for thrombin anti-thrombin complex (TAT), a factor released upon activation of the coagulation cascade and one of the biomarkers associated with thrombotic events occurring in patients affected with deep vein thrombosis (DVT) or SLE^45,46. TAT is an accepted clinical biomarker for procoagulation^48,49. An enzyme-linked immunosorbent assay (ELISA) was used to quantify the thrombin anti-thrombin complex (TAT).

[3] = test system: fibrin deposition from human whole blood on HUVEC endothelium; test: Vessel-On-Chip blood perfusion, fibrin deposition by fluorescent fibrinogen imaging; format: cell-based; conditions: for fibrin deposition / fibrin signal intensity on the endothelium: vs blood alone, TNF-α 50 ng/ml 6 h, sCollagen 10 μg/ml, hu5C8 240 μg/ml + sCD40L 10 ng/ml
Method: as §2, §4
Visualizing Fibrin Deposition: When analyzing the formation of fibrin, 10 μg/ml of fluorescently labeled fibrinogen (Alexa 488, Invitrogen) was also added to the blood. While fluorescent fibrinogen was barely detected as a diffused fluorescence, fibrin deposition on inflamed cells and sparse clots was easily distinguished since fibrin formed filamentous structures produce a signal intensity that is clearly observed above a background threshold.
as §5, with “hour.” for “hour. After blocking, samples were washed in PBS twice and then incubated with anti VE-Cadherin monoclonal antibody (Abeam) diluted 1:100 in blocking solution at 4° C. overnight.”
Platelet Coverage: A percentage of signal coverage (or Platelet coverage) was computed from the binary image as the ratio of bright pixels to the total number of pixels in the image, Image processing and quantification was performed with an automatic macro compiled in ImageJ in order to ensure unbiased signal measurements. Numerical values corresponding to platelet coverage or fibrin fluorescence (signal intensity) were collected and statistically analyzed in Graphpad Prism V7.

ICAM1 = ICAM1 immunostaining of endothelium on chip; format: cell-based, human; conditions: TNF-α stimulated endothelium
Method: ICAM1 is shown with examples identified by white arrows. One example of a DAPI stained nuclei is shown inside of a white circle.
TNF-alpha Stimulation: In some experiment endothelial cells were stimulate with 50 ng/ml of TNF (Sigma) for 6 hours in order to induce vascular inflammation before blood perfusion.

lupus nephritis patients = conditions: lupus nephritis clinical study; cited from earlier work
[4] = test system: human whole blood perfused over HUVEC endothelium; test: Thrombosis on-chip, combined endpoints (platelet coverage, fibrin deposition, TAT); format: cell-based; conditions: hu5C8 alone 240 μg/mL; sCD40L alone 10 ng/ml; 4 donors; 60 μl/minute
Method: as §3, §1
Re-calcified blood samples were then perfused through the biomimetic vessel with untreated endothelium at a flow rate of 60 ul/minute for about 10 minutes while sodium citrate was re-introduced through the anticoagulant port. […]

[5] = Eptifibatide 2 ug/ml, endothelium inflamed with TNF-α, n=4

Nc1ncnc2c1ncn2[C@@H]1O[C@H](COP(=O)(O)OP(=O)(O)O)[C@@H](O)[C@H]1O [ADP]
platelets positive for p-selectin (p-selectin on platelets): over 90%

N=C(N)NCCCC[C@@H]1NC(=O)CCSSC[C@@H](C(N)=O)NC(=O)[C@@H]2CCCN2C(=O)[C@H](Cc2c[nH]c3ccccc23)NC(=O)[C@H](CC(=O)O)NC(=O)CNC1=O [Eptifibatide] ([Mpa][hArg]GDWPC-NH2; disulfide 1-7)
inhibition of platelet aggregation [1, 5]: significantly inhibited
inhibitory effect on platelet aggregation and fibrin clot formation ([1]; Eptifibatide 2 ug/ml, following treatment with sCollagen, n=4): comparatively modest
platelet adhesion (image analysis of multiple experiments) ([1]; Eptifibatide 2 ug/ml, n=4): completely inhibited
effect on TAT increment associated with TNF-α-induced inflammation ([2]; Eptifibatide 2 ug/ml, TNF-α pre-treated endothelium): did not inhibit
effect on TAT increment due to sCollagen treatment ([2]; Eptifibatide 2 ug/ml, sCollagen-treated blood): entirely suppressed
inhibition of fibrin clot formation [3, 5]: significantly inhibited
fibrin signal remaining under Eptifibatide ([3]; Eptifibatide 2 ug/ml, samples treated with TNF-α): significant amount of fibrin signal was still detectable

TNF-α
expression of ICAM1 in the endothelium compared to the control (ICAM1): increased expression
platelet coverage / platelet aggregate formation on the endothelium [1]: increased
levels of TAT in outflow [2]: significantly increased
fibrin deposition / fibrin signal intensity on the endothelium [3]: increased

hu5C8: humanized monoclonal IgG1 antibody against CD40L (anti-CD154)
incidence of thromboembolitic events (lupus nephritis patients): 2/18
treatment-related effects compared to untreated blood [4]: no significant treatment-related effects

sCollagen: soluble collagen (Soluble Calf Skin, Type I), a standard platelet activator
platelet coverage / platelet aggregate formation on the endothelium [1]: increased
levels of TAT in outflow [2]: minimally increased
fibrin deposition / fibrin signal intensity on the endothelium [3]: increased
